Test results: US6326363A, “Methylenebisphosphonic acid derivatives” (Leiras Oy, priority 1997, dated 2001)
Counter-ions that a name gives are not always drawn. Like-named read-outs stand apart in the source and are kept apart here.

Legend:
[1] = Chemical hydrolysis of prodrug molecules in phosphate buffer at 37° C.; type: physicochemical; details: phosphate buffer 50 mM; for half-life: 50 mm phosphate buffer
Method: Chemical hydrolysis of prodrug molecules was analysed in phosphate buffer (50 mM, μ=0.15) at pH 2.0 and 7.4 and at 37° C.
The compound to be studied was dissolved in 10.0 ml of phosphate buffer. The solution was stirred for 24-1000 h in a water bath with a magnetic stirrer, and samples were taken at regular intervals and analysed with HPLC. From the results a graph of pseudo I order was drawn, where the amount of the remaining compound was shown as a function of time. From the slope (kk) of the linear graph so obtained, a dissociation constant k (k=2.303×-kk) was calculated, wherefrom the half-life T1/2 (T1/2 =0.693/k) of the prodrug molecule under the circumstances in question was calculated.

[2] = Enzymatic hydrolysis of prodrug molecules in 80% plasma at pH 7.40 and 37° C.; type: in vitro ADME; details: pH 7.4, 37° C.; for metabolised at 1 min: 1 minute, mean ± SE, n = 3, read-out: clodronate released in the first sample (1 minute)
Method: The enzyme hydrolysis rate of prodrug molecules was determined in a plasma/buffer mixture (80%-20%) at pH 7.40 and at 37° C.
The compound to be tested was dissolved in the buffer part and, after dissolution, plasma with a temperature of 37° C. was added. The solution was stirred with a magnetic stirrer and a sample of 0.25 ml was taken from the mixture at intervals of 1-360 min (depending on the molecule to be tested), to which sample 0.25 ml methanol (denatures proteins) was added. The sample was centrifuged, the clear supernatant was evaporated to dryness, the residue was dissolved in the eluent of the HPLC method, and the remaining prodrug concentration and the amount of the clodronate formed were analysed with HPLC. From the concentrations obtained a first-order graph was drawn (the remaining prodrug amount as a function of time), wherefrom a dissociation constant and half-life (T1/2) were determined.

[3] = Distribution coefficient octanol/buffer (log P); type: physicochemical; details: 1-octanol/buffer
Method: The fat-solubility of the compounds of the test was studied by determining the distribution coefficients (P) of the compounds at pH 7.4 and 2.0. The analysis were carried out in a mixture of octanol and buffer.
When the octanol/buffer method of analysis was used, 1-octanol and the phosphate buffer used (50 mM, pH 7.40, μ=0.15) were saturated with each other by stirring a mixture of these overnight. Phases were separated and a prodrug standard solution with the desired concentration was made in the buffer phase. Appropriate volumes of 1-octanol and the standard solution of phosphate buffer were mixed and the mixture was shaken vigorously for 60 min. After shaking the phases were separated and the concentration of the compound to be studied was analysed from the buffer phase before and after distribution according to the above described HPLC method. Distribution coefficient P was calculated from the following formula: [formula]
C1 =concentration of the compound to be studied before distribution
Ca =concentration of the compound to be studied after distribution
Va =volume of the buffer phase
Vo =volume of the octanol phase

[4] = Water-solubility in phosphate buffer (50 mM, pH 7.4), HPLC; type: physicochemical; details: for solubility at 2 h: 50 mm phosphate buffer, aqueous buffer
Method: Clodronate and the prodrug molecules of clodronate were analysed with reverse phase/ion pair HPLC method (an isocratic program for clodronate; a gradient program for the simultaneous analysis of clodronate and a prodrug molecule), where detection of compounds was based on the measurement of light scattering caused by unevaporated compounds.
Equipment: Merck LaChrom HPLC (Merck Hitachi Ltd., Japan) Kromasil 100 RP-C8 (250×4.6 i.d., 5 μm) (Higgins Analytical Inc., USA)
Isocratic programe: methanol/ammoniumacetate buffer (3:97, pH 4.6), which contained 2.25% butylamine as ion pair reagent, flow 1.2 ml/min.
Gradient program: methanol (3%→40-60% during 1 min-6 min)/ammoniumacetate (pH 4.6), which contained 2.25% butylamine as ion pair reagent, flow 1.2 ml/min.
Detector: Sedex 55 light scattering detector (Sedere, France)
Settings: temperature of detector 70° C., pressure of evaporating gas (filtered air) 2.2 bar.
Water-solubilities of prodrug molecules were determined in phosphate buffer (50 mM, pH 7.4) at room temperature.
An excess of the compound to be tested was dissolved in about 5 ml of phosphate buffer. The suspension was stirred for 2 hours, the suspension was filtered, and the prodrug concentration of the filtrate was determined with HPLC. Water-solubility of clodronate was determined with the same method.

[5] = test system: PTH-induced bone resorption in mouse calvaria; assay: Inhibition of PTH-induced bone resorption in mouse calvaria in vitro; type: cell-based; details: 72 h, 100 μmol/l, PTH 10 nM, cultured for three days, read-out: Inhibition of resorption 100 (PTH-x)/PTH
Method: Newborn mice were labeled by a subcutaneous injection of ^45 Ca four days prior to sacrifice. Calvarial bone fragments were microdissected from the parietal bones, preincubated in culture medium with indomethacin, washed and then cultured for three days with and without a bisphosphonate prodrug. Bone resorption was stimulated by parathyroid hormone (PTH, 10 nM), and the effect on this stimulated resorption was measured. As presented in Table 4, an inhibition of resorption by the compounds was shown. The inhibition by the bisphosphonate prodrugs was even higher than with the parent drug.

[6] = Absorption and hydrolysis in vivo, oral bioavailability in fasted rats; details: rat, 100 umol/kg, urine 72 hours, compared with intravenous, parent drug analyzed
Method: Absorption and hydrolysis of the compounds in vivo was studied in fasted rats. Absorption was determined from the total amount excreted into urine during 72 hours after administration. For the determination of oral bioavailability excreted amount after oral administration was compared with that after intravenous administration. The urine samples were analyzed for the parent drug with mass-selective or nitrogen phosphorous-detection gas chromatography. The results presented in Table 5 show increased bioavailability of the bisphosphonate prodrugs compared with that of the parent compound.

[7] = μ=0.15, pH 2.0, 37° C., read-out: T1/2 pH 2.0 (converted)
[8] = μ=0.15, pH 7.4, 37° C., read-out: T1/2 pH 7.4 (converted)
[9] = pH 2.0, read-out: Log P (pH 2.0)
[10] = 1-octanol/phosphate buffer, pH 7.4, read-out: Log P (pH 7.4)
[11] = phosphate buffer 50 mM, pH 7.4, room temperature

SMILES	half-life [1, 7] [h]	metabolised at 1 min [2] [%]	logD [3, 9]	logD [3, 10]	solubility at 2 h [4, 11] [mg/mL]	inhibition at 100 µM [5] [%]	further results
O=C(OP(=O)(O)C(Cl)(Cl)P(=O)(O)OC(=O)c1ccccc1)c1ccccc1 [Benzoe acid dianhydride (Ex. 7), P,P'-Di(benzoyl)(dichloromethylene)bisphosphonate disodium salt]	286	91.4 ± 8.6	-1.5	-2.4	6	–	half-life [1, 8]: 235 h
CCCC(=O)OP(=O)(O)C(Cl)(Cl)P(=O)(O)OC(=O)CCC [Butanoic acid dianhydride (Ex. 7), P,P'-Dibutyroyl(dichloromethylene)bisphosphonate disodium salt]	0.8	98 ± 6.9	-1.9	-2.4	172	–	T1/2 pH 7.4 ([1]; μ=0.15, pH 7.4, 37° C.): 31.3 h
O=P([O-])([O-])C(Cl)(Cl)P(=O)(O)O.[Na+].[Na+] [Clodronate, dichloromethylenebisphosphonic acid disodium salt, reference compound]	–	–	–	–	397	43.2	bioavailability at 72 h [6]: 2.17%; Water-solubility (in words) ([4]; reason why the distribution coefficient cannot be determined): extremely water-soluble
CC(=O)OP(=O)(O)C(Cl)(Cl)P(=O)(O)OC(C)=O [Compound 1, P,P'-Diacetyl(dichloromethylene)bisphosphonate disodium salt]	0.7	102 ± 1.2	-1.4	-2.2	190	48.7	T1/2 pH 7.4 ([1]; μ=0.15, pH 7.4, 37° C.): 15.2 h
CC(C)C(=O)OP(=O)(O)C(Cl)(Cl)P(=O)(O)OC(=O)C(C)C [Compound 2, P,P-di(isobutyroyl)(dichloromethylene)bisphosphonate disodium salt]	–	–	–	–	–	64.8	–
CCCCCCCCCCCCCC(=O)OP(=O)(O)C(Cl)(Cl)P(=O)(O)OC(=O)CCCCCCCCCCCCC [Compound 3, P,P'-di(tetradecanoyl)(dichoromethylene)bisphosphonate disodium salt]	–	–	–	–	–	50.5	–
CCCCCCCCCCCCCCCCCC(=O)OP(=O)(O)C(Cl)(Cl)P(=O)(O)OC(=O)CCCCCCCCCCCCCCCCC [Compound 4, P,P'-di(octadecanoyl)(dichloromethylene)bisphosphonate disodium salt]	–	–	–	–	–	53.9	–
CC(C)(C)C(=O)OP(=O)(O)C(Cl)(Cl)P(=O)(O)OC(=O)C(C)(C)C [Pivalyl acid dianhydride (Ex. 7), P,P'-Di(pivaloyl)(dichloromethylene)bisphosphonate disodium salt]	–	–	-2	-2.3	–	–	half-life [1, 8]: 790 h; T1/2 pH 2.0 ([1]; μ=0.15, pH 2.0, 37° C.): 8.6 h; T1/2 Plasma [2]: 3.3 ± 0.6 h; Water-solubility ([4]; phosphate buffer 50 mM, pH 7.4, room temperature, 120 min): 23,5 mg/ml
